Residues, ends and D or L forms follow the SMILES beside them. *: point of attachment. OBn = c1ccc(CO*)cc1
Tests used:
[1] = system: Mus musculus; assay: Toxicity in mouse S180 cells allografted ICR mouse assessed as kidney weight at 8.9 mg/kg, ip qd for 7 days relative to control; format: organism-based, CCRF S-180; parameters: dose 8.9 mg/kg, route intraperitoneal; conditions: in vivo, 168 h
[2] = system: CCRF S-180; assay: Antiproliferative activity against mouse S180 cells after 48 hrs by MTT assay; format: functional, cell-based; conditions: CCRF S-180, 48 h
[3] = system: Mus musculus; assay: Toxicity in mouse S180 cells allografted ICR mouse assessed as liver weight at 8.9 mg/kg, ip qd for 7 days relative to control; format: organism-based, CCRF S-180; parameters: dose 8.9 mg/kg, route intraperitoneal; conditions: in vivo, 168 h
[4] = system: Mus musculus; assay: Toxicity in mouse S180 cells allografted ICR mouse assessed as spleen index at 8.9 mg/kg, ip qd for 7 days relative to control; format: organism-based, CCRF S-180; parameters: dose 8.9 mg/kg, route intraperitoneal; conditions: in vivo, 168 h
[5] = system: CCRF S-180; assay: Antitumor activity against mouse S180 cells allografted in ICR mouse assessed as tumor growth inhibition at 8.9 mg/kg, ip qd for 7 days relative to control; format: functional; conditions: CCRF S-180, ip, 168 h, route intraperitoneal, read-out: TGI
[6] = system: Mus musculus; assay: Toxicity in mouse S180 cells allografted ICR mouse assessed as brain weight at 8.9 mg/kg, ip qd for 7 days relative to control; format: organism-based, CCRF S-180; parameters: dose 8.9 mg/kg, route intraperitoneal; conditions: in vivo, 168 h
[7] = system: HepG2; assay: Antiproliferative activity against human HepG2 cells after 48 hrs by MTT assay; format: functional, cell-based; conditions: HepG2, 48 h
[8] = system: B16; assay: Antiproliferative activity against mouse B16 cells after 48 hrs by MTT assay; format: functional, cell-based; conditions: B16, 48 h
[9] = system: H22; assay: Antiproliferative activity against mouse H22 cells after 48 hrs by MTT assay; format: functional, cell-based; conditions: H22, 48 h
[10] = system: K562; assay: Antiproliferative activity against human K562 cells after 48 hrs by MTT assay; format: functional, cell-based; conditions: K562, 48 h
[11] = system: Mus musculus; assay: Toxicity in mouse S180 cells allografted ICR mouse assessed as increase of body weight at 8.9 mg/kg, ip qd for 7 days relative to control; format: organism-based, CCRF S-180; parameters: dose 8.9 mg/kg, route intraperitoneal; conditions: in vivo, 168 h
[12] = Acute toxicity in ip dosed ICR mouse after 7 days; format: organism-based; conditions: in vivo
[13] = system: Mus musculus; assay: Neurotoxicity in ICR mouse assessed as neurotoxic behavior up to 500 mg/kg, ip after 7 days; format: toxicity, organism-based; parameters: dose 500 mg/kg, route intraperitoneal; conditions: in vivo, 168 h
[14] = system: Mus musculus; assay: Toxicity in ICR mouse assessed as changes in organs up to 500 mg/kg, ip after 7 days by necropsy analysis; format: organism-based; parameters: dose 500 mg/kg, route intraperitoneal; conditions: in vivo, 168 h
[15] = system: Mus musculus; assay: Toxicity in ICR mouse assessed as mortality up to 500 mg/kg, ip after 7 days; format: organism-based; parameters: dose 500 mg/kg, route intraperitoneal; conditions: in vivo, 168 h

| Compound | Activity [1] | IC50 [2] | Activity [3] | Activity [4] | inhibition in vivo at 8.9 mg/kg [5] | Activity [6] | IC50 [7] | IC50 [8] | IC50 [9] | IC50 [10] | Activity [11] | LD50 at 168 h [12] | Activity [13] | Activity [14] | Activity [15] |
| --- | --- | --- | --- | --- | --- | --- | --- | --- | --- | --- | --- | --- | --- | --- | --- |
| C[C@H](N)C(=O)N[C@@H](Cc1c[nH]c2ccccc12)C(=O)N[C@@H](Cc1c[nH]c2ccccc12)C(=O)OCc1ccccc1 (H-Ala-Trp-Trp-OBn) | Non-toxic | 72.7 µM | Non-toxic | Non-toxic | -11.4% | Non-toxic | 49.9 µM | 132 µM | 84.9 µM | 116 µM | Toxic | – | – | – | – |
| N=C(N)NCCC[C@H](N)C(=O)N[C@@H](Cc1c[nH]c2ccccc12)C(=O)N[C@@H](Cc1c[nH]c2ccccc12)C(=O)OCc1ccccc1 (H-Arg-Trp-Trp-OBn) | Non-toxic | 29.4 µM | Non-toxic | Non-toxic | 45.1% | Non-toxic | 38.1 µM | 37.4 µM | 27.5 µM | 27.2 µM | Toxic | > 500 mg/kg | Non-toxic | Non-toxic | Non-toxic |
| N[C@@H](CC(=O)O)C(=O)N[C@@H](Cc1c[nH]c2ccccc12)C(=O)N[C@@H](Cc1c[nH]c2ccccc12)C(=O)OCc1ccccc1 (H-Asp-Trp-Trp-OBn) | Non-toxic | 164 µM | Non-toxic | Non-toxic | -8.85% | Non-toxic | 122 µM | 157 µM | 107 µM | 170 µM | Toxic | – | – | – | – |
| N[C@@H](CS)C(=O)N[C@@H](Cc1c[nH]c2ccccc12)C(=O)N[C@@H](Cc1c[nH]c2ccccc12)C(=O)OCc1ccccc1 (H-Cys-Trp-Trp-OBn) | Non-toxic | 26.2 µM | Non-toxic | Non-toxic | 48.4% | Non-toxic | 35 µM | 32.8 µM | 24.7 µM | 20.6 µM | Toxic | > 500 mg/kg | Non-toxic | Non-toxic | Non-toxic |
| NC(=O)CC[C@H](N)C(=O)N[C@@H](Cc1c[nH]c2ccccc12)C(=O)N[C@@H](Cc1c[nH]c2ccccc12)C(=O)OCc1ccccc1 (H-Gln-Trp-Trp-OBn) | Non-toxic | 27.6 µM | Non-toxic | Non-toxic | 43% | Non-toxic | 26.2 µM | 31.8 µM | 25.1 µM | 24.6 µM | Toxic | > 500 mg/kg | Non-toxic | Non-toxic | Non-toxic |
| N[C@@H](CCC(=O)O)C(=O)N[C@@H](Cc1c[nH]c2ccccc12)C(=O)N[C@@H](Cc1c[nH]c2ccccc12)C(=O)OCc1ccccc1 (H-Glu-Trp-Trp-OBn) | Non-toxic | 16.6 µM | Non-toxic | Non-toxic | 78.8% | Non-toxic | 22.3 µM | 21.4 µM | 14.7 µM | 14.3 µM | Toxic | > 500 mg/kg | Non-toxic | Non-toxic | Non-toxic |
| NCC(=O)N[C@@H](Cc1c[nH]c2ccccc12)C(=O)N[C@@H](Cc1c[nH]c2ccccc12)C(=O)OCc1ccccc1 (H-Gly-Trp-Trp-OBn) | Non-toxic | 79.9 µM | Non-toxic | Non-toxic | -6.51% | Non-toxic | 58.3 µM | 159 µM | 51.1 µM | 88.6 µM | Toxic | – | – | – | – |
| N[C@@H](Cc1cnc[nH]1)C(=O)N[C@@H](Cc1c[nH]c2ccccc12)C(=O)N[C@@H](Cc1c[nH]c2ccccc12)C(=O)OCc1ccccc1 (H-His-Trp-Trp-OBn) | Non-toxic | 83.3 µM | Non-toxic | Non-toxic | 11.9% | Non-toxic | 97.2 µM | 100 µM | 95.5 µM | 101 µM | Toxic | – | – | – | – |
| CC(C)C[C@H](N)C(=O)N[C@@H](Cc1c[nH]c2ccccc12)C(=O)N[C@@H](Cc1c[nH]c2ccccc12)C(=O)OCc1ccccc1 (H-Leu-Trp-Trp-OBn) | Non-toxic | 36.7 µM | Non-toxic | Non-toxic | 13.8% | Non-toxic | 41.5 µM | 53.4 µM | 36 µM | 37.9 µM | Toxic | – | – | – | – |
| NCCCC[C@H](N)C(=O)N[C@@H](Cc1c[nH]c2ccccc12)C(=O)N[C@@H](Cc1c[nH]c2ccccc12)C(=O)OCc1ccccc1 (H-Lys-Trp-Trp-OBn) | Non-toxic | 33 µM | Non-toxic | Non-toxic | 15% | Non-toxic | 25.9 µM | 57.4 µM | 33 µM | 34.5 µM | Toxic | – | – | – | – |
| O=C(N[C@@H](Cc1c[nH]c2ccccc12)C(=O)N[C@@H](Cc1c[nH]c2ccccc12)C(=O)OCc1ccccc1)[C@@H]1CCCN1 (H-Pro-Trp-Trp-OBn) | Non-toxic | 76 µM | Non-toxic | Non-toxic | 12.5% | Non-toxic | 91.7 µM | 94 µM | 91.5 µM | 91.8 µM | Toxic | – | – | – | – |
| C[C@@H](O)[C@H](N)C(=O)N[C@@H](Cc1c[nH]c2ccccc12)C(=O)N[C@@H](Cc1c[nH]c2ccccc12)C(=O)OCc1ccccc1 (H-Thr-Trp-Trp-OBn) | Non-toxic | 155 µM | Non-toxic | Non-toxic | -7.66% | Non-toxic | 155 µM | 182 µM | 153 µM | 173 µM | Toxic | – | – | – | – |
| N[C@@H](Cc1c[nH]c2ccccc12)C(=O)N[C@@H](Cc1c[nH]c2ccccc12)C(=O)N[C@@H](Cc1c[nH]c2ccccc12)C(=O)OCc1ccccc1 (H-Trp-Trp-Trp-OBn) | Non-toxic | 142 µM | Non-toxic | Non-toxic | -19.1% | Non-toxic | 163 µM | 162 µM | 106 µM | 164 µM | Toxic | – | – | – | – |
